Measured values taken from US5776720A, “Assay reagent” (priority 1995, dated 1998).
Counter-ions that a name gives are not always drawn.

What was measured:
lymphocytes = experiment: Normal leukocyte enzyme activity (Table 3A), lymphocytes; assay type: cell-based, human; set-up: unit not given here; details: normal donors
Excerpt: (§1) The measured fluorescence intensity can be converted from mean channel fluorescence (in peak or integrated mode) to MESF (molecules of equivalent soluble fluorochrome, Flow Cytometry Standards Corp. , San Juan, Puerto Rico) or International Units of hydrolysis per cell. A normal range of enzyme activity is established by assaying males and females in sufficient quantity to characterize the population levels statistically.
(§2) A normal in house adult donor pool was drawn, recording sex and determining that no known disease state was present at the time of sample draw. Criteria for rejecting samples included patients under medication, patients with infection or inflammation of any type, colds and flu as well as any known medical illness such as cancer, heart ailment and high blood pressure. A donor list of 75 patients has been developed and a mean and 2 sd range established. A subgroup of "super normals" was developed from this list by examining the 75 patients to determine which group falls closest to the mean for all enzymes in all cell types tested. These patients were used as the "wellness index" or best group of "normalcy" patients. If a study required the use of children or newborns then this same format was used to develop a data base for these age groups.

granulocytes = experiment: Normal leukocyte enzyme activity (Table 3A), granulocytes; assay type: cell-based, human; set-up: unit not given here; details: normal donors
Excerpt: as §1, §2

amino peptidase = experiment: immune competence, amino peptidase activity in Ficoll prepared lymphocytes (FIG. 4); assay type: cell-based; details: acute lympholytic Ficoll prepared lymphocytes, FIG. 4B
Excerpt: The cell's ability to fight off an invader lies within its genetics and therefore cell type. The "readiness" however of any genetically capable group of cells to defend is different. A measure of this "readiness" is manifest in the available proteolytic enzymes contained within vacuoles or on the surface of the cell. The assay compound hydrolysis rate increases with increased mass of enzymes giving a picture of immune competence both in number of cells and activity level. […] Images were generated using Universal Imaging.

monocytes = experiment: Normal leukocyte enzyme activity (Table 3A), monocytes; assay type: cell-based, human; set-up: unit not given here; details: normal donors
Excerpt: as §1, §2

enzyme = experiment: modulator effect on sensitivity of substituted rhodamine 110 substrates; assay type: cell-based; details: 1 mM
Excerpt: Modulators are components used to […] the sensitivity of the enzyme for the leaving group. The modulators speed up or slow down the activity of an enzyme by changing the active site. […] Preferred modulators for particular enzymes are included in Table 1.

dipeptide reagent = experiment: effect of added sodium chloride on dipeptide reagent; assay type: cell-based; details: addition of 7 mM, pH range 6.5 to 8.7
Excerpt: Inhibitors and poisons (or toxins) are components that can be added to reduce the activity of non-targeted enzymes that provide competing reactions for the leaving group. Inhibitors are usually very selective for a particular enzyme. For example, EDTA only works with enzymes requiring Ca^+2, Mg^+2 and some other metals. […] Preferred inhibitors for particular enzymes are included in Table 1.

cathepsin B = experiment: enzymatic reaction rate of cathepsin B; assay type: biochemical; details: 37° C.
Method: (§3) The acetate and tartrate salts thus prepared have the following characteristics, respectively: native free fluorescence, 63,000 and 61,000 photons; autohydrolysis rate when measured at 37° C. using a 1 cm path length, -5.56 and -3.8 change in photons per second; and enzymatic reaction rate of cathepsin B at 37° C., +128 and +138 change in photons per second.

autohydrolysis rate = assay type: physicochemical; details: 37° C., 1 cm path length
Method: A reaction run using the same data collection window without the enzyme source will determine auto-hydrolysis of the substrate and therefore the potential for negative cells to absorb the dye non-specifically resulting in false positive.
as §3

native free fluorescence = assay type: physicochemical
Excerpt: Assays for peptidases using assay compounds generate fluorescence generally in the range of 10^-5 to 10^-6 Molar free rhodamine 110. Therefore, it is preferred that the free rhodamine 110 and blocked peptide impurities in the assay reagent should be removed to a concentration of less than the fluorescence generated by about 1×10^-6 M and more preferably less than the fluorescence generated by about 10^-7 Molar free indicator group. This amounts to a 100,000 photon count using rhodamine 110 as a standard at 10^-7 -10^-8 M, preferably 5×10^-8 M in a 1 cm path length cuvette when measured over 10 min. on a photon counting spectrofluorometer manufactured by the SLM Company of Chicago, Ill. This corresponds to a use level on the flow cytometer where no cellular false positive can be detected for a 10 minute period at the highest sensitivity setting. […] The presence of impurities causes a decrease in the storage stability of the compound, resulting in an increased autohydrolysis which leads to increased background fluorescence. A compound should be free of impurities such that when the compound (or reagent containing the compound) is stored at 4° C. for 30 days, preferably 90 days, more preferably 180 days, most preferably one year, the background fluorescence increases less than 10% , preferably less than 5% , most preferably less than 1% over these time periods, respectively. […]

aminopeptidase = experiment: effect of calcium chloride on aminopeptidase reaction with (H-L-Asp)2 rhodamine 110; assay type: biochemical; details: approximately 10 mM
Excerpt: The chemical nature of the buffer is important to the reactivity of the assay compound with the cellular enzymes. […] In addition, the assay compound hydrolysis by the enzyme occurs at an increased rate of reaction.

CC(C)C[C@H](N)C(=O)Nc1ccc2c(c1)Oc1cc(NC(=O)[C@@H](N)CC(C)C)ccc1C21OC(=O)c2ccccc21 [LEU, (Leu)2 Rho 110]
NORMAL LEUKOCYTE ENZYME ACTIVITY, LYMPHS Mean (lymphocytes): 34.94
NORMAL LEUKOCYTE ENZYME ACTIVITY, GRANS Mean (granulocytes): 80.19
amino peptidase activity (amino peptidase): lost their enzymatic activity
NORMAL LEUKOCYTE ENZYME ACTIVITY, MONOS Mean (monocytes): 120.66

O[C@H](CS)[C@@H](O)CS [dithioerythritol (DTE), dithioerythritol]
effect on sensitivity of leaving group for enzyme (enzyme; substrates with Ala-Gly and Leu-Gly): does not change the sensitivity
effect on sensitivity of rhodamine 110 substrates (enzyme; substrates with Pro, Gly, Gln-Ser, Val-Lys-Val-Lys, Ala-Ala, Ala-Ala-Ala-Ala): decreases the sensitivity

[Cl-].[Na+] [sodium chloride]
effect on dipeptide reagent (dipeptide reagent): slightly inhibitory effect

CC(C)C[C@H](N)C(=O)NCC(=O)Nc1ccc2c(c1)Oc1cc(NC(=O)CNC(=O)[C@@H](N)CC(C)C)ccc1C21OC(=O)c2ccccc21 [acetate, (H-LEU-GLY)2 Rhodamine 110 Acetate]
enzymatic reaction rate of cathepsin B (cathepsin B): +128 change in photons per second
autohydrolysis rate (autohydrolysis rate): -5.56 change in photons per second
native free fluorescence (native free fluorescence): 63,000 photons

CC(C)C[C@H](N)C(=O)NCC(=O)Nc1ccc2c(c1)Oc1cc(NC(=O)CNC(=O)[C@@H](N)CC(C)C)ccc1C21OC(=O)c2ccccc21 [tartrate, (H-LEU-GLY)2 Rhodamine 110 Tartrate]
enzymatic reaction rate of cathepsin B (cathepsin B): +138 change in photons per second
autohydrolysis rate (autohydrolysis rate): -3.8 change in photons per second

[Ca+2].[Cl-].[Cl-] [calcium chloride]
effect on aminopeptidase reaction with (H-L-Asp)2 rhodamine 110 (aminopeptidase): inhibitory to the enzyme reaction
